Measured values as given in ChEMBL document CHEMBL4270648, “Molecular design, synthesis and biological evaluation of cage compound-based inhibitors of hepatitis C virus p7 ion channels” (Eur J Med Chem, 2018).

How the values were obtained:
[1] = Cytotoxicity against calf heart cells assessed as reduction in cell viability by colorimetric method; format: cell-based, Bos taurus; details: cattle
[2] = Selectivity index, ratio of CC50 for calf heart cells to IC50 for BVDV VK-1 infected in calf heart cells; format: toxicity, cell-based; details: cattle, read-out: Ratio CC50/IC50
[3] = Inhibition of p7 ion channel in BVDV VK-1 infected in calf heart cells assessed as reduction in viral growth by colorimetric method; format: cell-based, Bovine viral diarrhea virus 1; details: Bovine viral diarrhea virus isolates and strains

SMILES | CC50 [1] [µM] | selectivity ratio [2] | IC50 [3] [µM]
O/N=C1/CC2CC3CC(C2)CC1C3 | 148 | 20.6 | 7.21
CC1(c2ccccc2)CCCN(CCC23CC4CC(CC(C4)C2)C3)C1 (centres undefined) | 86.7 | 28.7 | 3.02
O=c1cc[nH]cc1C12CC3CC(CC(C3)C1)C2 | > 436 | > 33.9 | 12.9
CC1=NC(C)(C23CC4CC(CC(C4)C2)C3)CO1 (centres undefined) | 168 | 5 | 33.4
CSc1ncn(C2(c3ccccc3O)C3CC4CC(C3)CC2C4)n1 (centres undefined) | 119 | 5.2 | 22.9
O=C(O)CC12CC3CC(O)(C1)CC(CC(=O)O)(C3)C2 | > 373 | > 3.2 | 116
N#CC(C#N)=C(/C=C/N1CCOCC1)C12CC3CC(CC(C3)C1)C2 | > 309 | > 3.6 | 86.4
O=c1ccc(C23CC4CC(CC(C4)C2)C3)n[nH]1 | > 434 | > 21.8 | 20
O=c1ccn(C23CC4CC(CC(C4)C2)C3)cc1 | 158 | 4.5 | 35.3
C1CN[C@H]2C3CC4CC(CC(C4)[C@H]2N1)C3 | > 358 | > 211 | 1.69
CCN(CC)C[C@H](Cl)[C@H](O)C12CC3CC(CC(C3)C1)C2 (relative stereo) | 274 | 20.5 | 13.4
CCC1CC2CC3CC(C2)CC1(O)C3 (centres undefined) | 403 | 95.2 | 4.24
c1ccc2nc3c(nc2c1)C1CC2CC(C1)CC3C2 | > 400 | > 50.8 | 7.87
O=C([C@@H]([C@H](C[N+](=O)[O-])c1ccccc1)S(=O)(=O)c1ccccc1)C12CC3CC(CC(C3)C1)C2 (relative stereo) | > 215 | > 114 | 1.89
CC1=CCCN(CC(O)C23CC4CC(CC(C4)C2)C3)C1 (centres undefined) | 190 | 7.5 | 25.2
C1CN(C[C@H]2O[C@@H]2C23CC4CC(CC(C4)C2)C3)CCO1 (relative stereo) | 271 | 1.7 | 164
O=S1(=O)OC23CC4CC(CC(C4)C2)C[C@H]3[C@@H]1CNCc1ccccc1 | 96 | 1.7 | 56.5
O=C1/C(=N/O)C2CC3CC(CC1C3)C2 | > 518 | > 2.9 | 177
O=S1(=O)OC23CC4CC(CC(C4)C2)C[C@H]3[C@@H]1CN1CCCCC1 | > 295 | > 1.8 | 163
Cc1cccc[n+]1CCC12CC3CC(CC(C3)C1)C2 | 297 | 32 | 9.3
O=c1[nH]cc(C23CC4CC(CC(C4)C2)C3)cc1C12CC3CC(CC(C3)C1)C2 | > 275 | > 107 | 2.56
Cc1cccc[n+]1CC(=O)C12CC3CC(CC(C3)C1)C2 | > 285 | > 3.6 | 78.8
COP(=O)(OC)[C@@H](C(=O)C12CC3CC(CC(C3)C1)C2)[C@H](C[N+](=O)[O-])c1ccccc1 (relative stereo) | > 230 | > 21.7 | 10.6
C=C(COc1ccccc1C(=O)OCC)C12CC3CC(CC(C3)C1)C2 | 35.8 | 7.8 | 4.57
c1cc(OC23CC4CC(CC(C4)C2)C3)ccn1 | 290 | 7.8 | 37.4
C[C@@H]1N[C@H]1C12CC3CC(CC(C3)C1)C2 | 105 | 1.4 | 76.7
CC1(c2ccccc2)CCN(CCC23CC4CC(CC(C4)C2)C3)CC1 | 90.7 | 32.1 | 2.82

SMILES | CC50 [1] [µM] | selectivity ratio [2] | IC50 [3] [µM]
O=C(NCc1ccccc1)C1C(=O)C2CC3CC(C2)CC1C3 (centres undefined) | > 336 | > 5.1 | 66.6
Oc1noc2c1C1CC3CC(CC2C3)C1 | > 487 | > 82 | 5.94
CC(=O)NCC12CC3CC(C1)CC(CC(=O)O)(C3)C2 | > 377 | > 2.1 | 181
O=S1(=O)OC23CC4CC(CC(C4)C2)C[C@H]3[C@@H]1CN1CCOCC1 | > 293 | > 4.7 | 62.1
CCN(CC)C[C@H]1O[C@@H]1C12CC3CC(CC(C3)C1)C2 (relative stereo) | 90.4 | 2.3 | 39.5
O=C(O)C(Br)C12CC3CC(CC(O)(C3)C1)C2 (centres undefined) | > 346 | > 1.8 | 193
c1ccc2c(c1)Oc1ncnn1C21C2CC3CC(C2)CC1C3 (centres undefined) | > 341 | > 54.7 | 6.23
CC12CC3(N)CC(CC(=O)O)(C1)CC(CC(=O)O)(C2)C3 | > 315 | > 2.7 | 118
CC(=O)NC(C)C12CC3CC(CC(C(=O)O)(C3)C1)C2 (centres undefined) | > 377 | > 13.1 | 28.9
Oc1ccccc1C1(n2cncn2)C2CC3CC(C2)CC1C3 (centres undefined) | > 339 | > 56.5 | 5.99
C[C@H](O)[C@H](N)C12CC3CC(CC(C3)C1)C2 | > 407 | > 4 | 103
CC(O)(CNC(=O)C(F)(F)F)C12CC3CC(CC(C3)C1)C2 (centres undefined) | 259 | 3.4 | 75.4
C1C2CC3CC1CC(C2)c1nc2c(nc13)C1CC3CC(C1)CC2C3 | > 312 | > 3.1 | 102
c1ccc2[nH]cc(C34CC5CC(CC(C5)C3)C4)cc[nH]c2c1 | 128 | 6.3 | 20.3
O=c1[nH][nH]c2c1C1CC3CC(CC2C3)C1 | > 485 | > 12.2 | 39.7
O=C1CCC(C23CC4CC(CC(C4)C2)C3)=NN1c1ccccc1 | 235 | > 450 | < 0.52
CC(=C(C#N)C#N)C12CC3CC(CC(C3)C1)C2 | 106 | 4.1 | 25.9
OC(CN1CCCc2ccccc21)C12CC3CC(CC(C3)C1)C2 (centres undefined) | > 321 | > 1.5 | 213
O=C(C[n+]1ccccc1)C12CC3CC(CC(C3)C1)C2 | > 297 | > 3.9 | 75.9
NCC12CC3CC(C1)CC(CC(=O)O)(C3)C2 | > 385 | > 1 | 382
CN(C)C1=NC2(c3ccccc3O1)C1CC3CC(C1)CC2C3 (centres undefined) | 72.1 | 1 | 70.9
CN(C)c1cc[n+](C23CC4CC(CC(C4)C2)C3)cc1 | 199 | 8.1 | 24.4
O/N=C1\C(=N\O)C2CC3CC(CC1C3)C2 | 480 | 142 | 3.38
c1ccc2c[n+](CCC34CC5CC(CC(C5)C3)C4)ccc2c1 | 83 | 1.5 | 56.6
O=C(O)CC12CC3(O)CC(CC(=O)O)(C1)CC(C(=O)O)(C3)C2 | > 320 | > 1.1 | 282
O=C(C[n+]1cccc2ccccc21)C12CC3CC(CC(C3)C1)C2 | 133 | 8.7 | 15.2
